Measurements taken from ChEMBL document CHEMBL3272305, “Synthesis and comparative skeletal muscle relaxant activity of some 2,4-imidazolidinediones and their corresponding 5-hydroxy-2,4-imidazolidinediones” (J Med Chem, 1978).
Calls of active or inactive are those of the source. No cut-off for these calls is given here.

Key:
Mus musculus [1] = experiment: Induction of skeletal muscle relaxation in po dosed albino mouse after 60 mins; assay type: functional; settings: 1 h
Mus musculus [2] = experiment: Induction of skeletal muscle relaxation in ip dosed albino mouse after 60 mins; assay type: functional; settings: 1 h
Rattus norvegicus [3] = experiment: Inhibition of gastrocnemius twitch in Sprague-Dawley rat at cumulative dose of 36.6 mg/kg, iv relative to control; assay type: functional
Rattus norvegicus [4] = experiment: Inhibition of gastrocnemius twitch in iv dosed Sprague-Dawley rat; assay type: functional
Mus musculus [5] = species on record: Mus musculus; experiment: Induction of straub tail relaxation in albino mouse assessed as gain of righting reflex in 1 min; assay type: functional
Mus musculus [6] = species on record: Mus musculus; experiment: Induction of muscle incoordination in mouse after 30 mins by rotarod test; assay type: organism-based, Muscle tissue; settings: in vivo, 0.5 h
Mus musculus [7] = species on record: Mus musculus; experiment: Muscle relaxant efficacy index, ratio of ED50 for muscle incoordination in mouse to ED50 for induction of straub tail relaxation in albino mouse
[8] = Toxicity in albino mouse after 72 hrs; assay type: organism-based; settings: in vivo
[9] = (§1) Inhibition of twitch in Charles River rat diaphragm at 60 mg/L after 5 mins; assay type: functional
[10] = Therapeutic index, ratio of LD50 for albino mouse to ED50 for induction of straub tail relaxation in albino mouse; assay type: organism-based; settings: in vivo, read-out: Ratio LD50/ED50
Rattus norvegicus [11] = species on record: Rattus norvegicus; experiment: as §1; assay type: functional

Row | SMILES | ED50 (Mus musculus [1]) [mg/kg] | ED50 (Mus musculus [2]) [mg/kg] | inhibition in vivo at 36.6 mg/kg (Rattus norvegicus [3]) [%] | ED50 (Rattus norvegicus [4]) [µmol/kg] | ED50 (Mus musculus [5]) [mg/kg] | ED50 (Mus musculus [6]) [mg/kg] | Ratio ED50 (Mus musculus [7]) | LD50 at 72 h [8] [mg/kg] | inhibition at 60 µg/mL [9] [%] | selectivity ratio [10] | inhibition (Rattus norvegicus [11])
1 | O=C1NC(=O)N(/N=C/c2ccc(-c3cccc(C(F)(F)F)c3)o2)C1O (stereo not given) | 166 | 244 | -57 | 96 | > 1000 | 85 | <0.09 | 563 | ≥ 40 |  | 
2 | O=C1CN(/N=C/c2ccc(-c3cccc(C(F)(F)F)c3)o2)C(=O)N1 | 647 | 143 | -74 | 50 | 184 | 166 | 0.85 | 274 | ≥ 40 | 1.4 | 
3 | O=C1CN(/N=C/c2ccc(-c3ccc(Cl)cc3)o2)C(=O)N1 | > 1000 | 1000 | -74 | 22 | > 1000 | 40 | <0.04 | > 6000 | ≥ 40 |  | 
4 | Nc1ccc(-c2ccc(/C=N/N3C(=O)NC(=O)C3O)o2)cc1 (stereo not given) | > 1000 | > 1000 | -67 | 39 | > 1000 | > 1000 |  | 192 | ≥ 40 |  | 
5 | N#Cc1ccc(-c2ccc(/C=N/N3CC(=O)NC3=O)o2)cc1 | > 1000 | > 1000 | -76 | 20 | > 1000 | 91 | <0.09 | 2340 | ≥ 40 |  | 
6 | CC(=O)Nc1ccc(-c2ccc(/C=N/N3C(=O)NC(=O)C3O)o2)cc1 (stereo not given) | > 1000 | > 1000 | -10 | > 107 | > 1000 | > 1000 |  | 673 |  |  | inactive
7 | CC(=O)Nc1ccc(-c2ccc(/C=N/N3CC(=O)NC3=O)o2)cc1 | > 1000 | > 1000 | 4 | > 112 | > 1000 | > 1000 |  | 1140 |  |  | inactive
8 | O=C1NC(=O)N(/N=C/c2ccc(-c3ccc(Cl)cc3)o2)C1O (stereo not given) | > 1000 | > 1000 | -77 | 16 | > 1000 | 63 | <0.06 | 522 | ≥ 40 |  | 
9 | O=C1CN(/N=C/c2ccc(-c3ccc([N+](=O)[O-])cc3)o2)C(O)=N1 [DANTROLENE] | 490 | 83 | -80 | 7 | 56 | 153 | 2.7 | > 7000 | ≥ 40 | 124 | 
10 | N#Cc1ccc(-c2ccc(/C=N/N3C(=O)NC(=O)C3O)o2)cc1 (stereo not given) | > 1000 | 156 | -69 | 25 | 743 | 96 | 0.13 | 104 | ≥ 40 | 0.14 | 
11 | O=C1NC(=O)N(/N=C/c2ccc(-c3ccc(Cl)c(Cl)c3)o2)C1O (stereo not given) | 109 | 72 | -82 | 19 | 34 | 10 | 0.3 | 209 | ≥ 40 | 6.1 | 
12 | Nc1ccc(-c2ccc(/C=N/N3CC(=O)NC3=O)o2)cc1 | > 1000 | > 1000 | -19 | > 129 | > 1000 | > 1000 |  | 1040 |  |  | inactive
13 | O=C1CN(/N=C/c2ccc(-c3ccc(F)cc3)o2)C(=O)N1 | 112 | 105 | -71 | 38 | 950 | 369 | 0.4 | 1400 | ≥ 40 | 1.5 | 
14 | O=C1NC(=O)N(/N=C/c2ccc(-c3ccc(F)cc3)o2)C1O (stereo not given) | > 1000 | 1000 | -53 | 91 | > 1000 | 240 | <0.24 | 784 | ≥ 40 |  | 
15 | O=C1NC(=O)N(/N=C/c2ccc(-c3ccc([N+](=O)[O-])cc3)o2)C1O (stereo not given) | > 1000 | > 1000 | -76 | 15 | > 1000 | 171 | <0.17 | > 5000 | ≥ 40 |  | 
16 | O=C1CN(/N=C/c2ccc(-c3ccc(Cl)c(Cl)c3)o2)C(=O)N1 [CLODANOLENE] | > 1000 | 647 | -77 | 10 | > 1000 | 181 | <0.18 | > 7000 | ≥ 40 |  | 
